Reference: ChEMBL document CHEMBL3988442, “University of Dundee, Small-Polar-MMV Screening Library” (2021)
Values joined by “and” are separate entries in the source; they are usually repeats but may differ in a detail not shown here. Equal values may be shown once.

Columns and labels:
[1] = target: T1, Histidine--tRNA ligase (Leishmania infantum, UniProt A4I591); assay: Leishmania infantum Histidine tRNA synthetase (LdHisRS); type: functional
T1 sequence (A4I591 whole entry): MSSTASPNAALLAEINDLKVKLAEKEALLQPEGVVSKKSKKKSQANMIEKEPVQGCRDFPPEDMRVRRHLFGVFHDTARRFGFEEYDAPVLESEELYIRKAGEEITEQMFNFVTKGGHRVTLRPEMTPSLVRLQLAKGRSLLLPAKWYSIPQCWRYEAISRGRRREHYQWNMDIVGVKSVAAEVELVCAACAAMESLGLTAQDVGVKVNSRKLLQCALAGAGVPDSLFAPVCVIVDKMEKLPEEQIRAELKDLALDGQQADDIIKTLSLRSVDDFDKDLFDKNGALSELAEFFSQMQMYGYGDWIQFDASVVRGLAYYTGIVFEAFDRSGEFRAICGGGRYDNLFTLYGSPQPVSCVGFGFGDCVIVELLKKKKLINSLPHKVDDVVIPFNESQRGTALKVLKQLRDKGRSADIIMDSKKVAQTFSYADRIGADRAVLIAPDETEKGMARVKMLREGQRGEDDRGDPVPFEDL

[2] = target: Tryptophan--tRNA ligase (Mycobacterium tuberculosis (strain ATCC 25618 / H37Rv), UniProt P9WFT3); assay: Biochemical assay for Mt-TrpRS; type: functional
Sequence of Tryptophan--tRNA ligase (P9WFT3 whole entry): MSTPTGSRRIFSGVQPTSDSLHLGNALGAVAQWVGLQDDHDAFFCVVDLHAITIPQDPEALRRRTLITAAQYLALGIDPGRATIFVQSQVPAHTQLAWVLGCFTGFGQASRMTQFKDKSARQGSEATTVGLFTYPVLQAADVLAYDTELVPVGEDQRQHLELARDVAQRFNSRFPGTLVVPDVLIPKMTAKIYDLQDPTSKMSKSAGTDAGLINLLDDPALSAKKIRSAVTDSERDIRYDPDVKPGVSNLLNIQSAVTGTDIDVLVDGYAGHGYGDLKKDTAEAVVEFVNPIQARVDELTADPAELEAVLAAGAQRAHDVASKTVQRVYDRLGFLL

[3] = target: ClpP1P2 (Mycobacterium tuberculosis (strain ATCC 25618 / H37Rv), UniProt P9WPC3+P9WPC5); assay: in vitro assay to detect presence of AMC directly proportional to the activity of ClpP1P2. GHDDI collaboration.; type: functional
Sequence of ClpP1P2 (P9WPC5 whole entry): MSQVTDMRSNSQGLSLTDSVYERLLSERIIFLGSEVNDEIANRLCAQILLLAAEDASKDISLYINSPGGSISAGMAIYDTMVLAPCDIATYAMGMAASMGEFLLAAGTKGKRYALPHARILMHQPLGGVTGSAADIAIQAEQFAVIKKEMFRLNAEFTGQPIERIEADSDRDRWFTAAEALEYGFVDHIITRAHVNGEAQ
Sequence of ClpP1P2 (P9WPC3 whole entry): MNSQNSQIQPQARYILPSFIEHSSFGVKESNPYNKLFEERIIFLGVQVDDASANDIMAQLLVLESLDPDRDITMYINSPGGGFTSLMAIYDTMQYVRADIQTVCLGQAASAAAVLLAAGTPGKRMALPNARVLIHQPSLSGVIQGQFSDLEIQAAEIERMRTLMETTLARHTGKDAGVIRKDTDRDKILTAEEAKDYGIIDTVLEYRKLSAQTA

[4] = In vitro enzyme assay to detect hydrolysis of chlorophenol red-beta-D-[…] directly proportional to the number of Toxoplasma stably expressing beta-galactosidase; type: functional, organism-based, Toxoplasma gondii; conditions: Toxoplasma gondii
[5] = microbe, parasite or virus in culture; conditions: Mycobacterium tuberculosis, 96 h, read-out: pIC50 (converted)
[6] = microbe, parasite or virus in culture; conditions: Mycobacterium tuberculosis, 72 h, read-out: pIC50 (converted)
[7] = system: Schistosoma mansoni; assay: High throughput screening of compounds against Schistosoma mansoni motility; type: functional; parameters: dose or concentration left out as unconfirmed

Structure (SMILES) | IC50 [2] [µM] | Percent Effect [7] [%] | other results
CCC1CCc2c(c3ccccc3[nH]c2=O)O1 (configuration not stated) |  |  | IC50 [1]: > 100 µM
COc1ccc2c(c1)C(=O)CC1(CCN(Cc3ccc(F)cc3)CC1)O2 | > 195 |  | IC50 [3]: > 100 µM
NC(=O)CN1CCC2(CC1)CC(=O)c1ccc3ccccc3c1O2 | > 195 |  | IC50 [3]: > 100 µM
CN1CCCN(C(=O)c2nc3c(s2)CCCN3CC2CC2)CC1 |  |  | IC50 [1]: 77.9 µM and 55.6 µM
O=C(c1cnccn1)N1C[C@@H]2[C@@H](C1)OCC(=O)N2CC1CCCC1 |  |  | IC50 [1]: > 100 µM
Cc1nc(N2CCCC2)nc2c1CCN(C(=O)C1CCC1)CC2 |  |  | IC50 [1]: > 100 µM
CO[C@H]1CN(S(=O)(=O)c2ccc(F)cc2)C[C@@]12CCCO2 | > 195 |  | IC50 [3]: > 100 µM
COCCNc1nnc(-c2ccc(C)nc2)s1 | > 195 |  | IC50 [4]: > 50.1 µM
COCCC(=O)N1CCC(C(=O)c2cc(C)cnc2N)CC1 | > 195 |  | IC50 [5]: > 50.1 µM; IC50 [6]: > 50.1 µM
CC(=O)N1CCCC(c2ccc(Cc3ccccc3)cn2)C1 (configuration not stated) | > 195 |  | IC50 [5]: 23.5 µM; IC50 [6]: 15.3 µM
O=C1CN(Cc2nnc(-c3ccc(Br)cc3)o2)CCN1 | > 195 | -48.54 | 
O=C(CCc1ccsc1)NCC1CCN(c2ccccc2)C1 (configuration not stated) | > 195 | 6.73 | 
CC(Cn1cccn1)NC(=O)Nc1ccc(N(C)C)nc1 (configuration not stated) | > 195 | 0.4135 | 
Cc1cc(NC(=O)NCCc2cccs2)n(C)n1 | > 195 | 9.063 | 
O=C1CN(Cc2nnc(-c3ccccc3Br)o2)CCN1 | > 195 | 12.25 | 
O=C(NCCCO)Nc1cccc(Cl)c1F | > 195 | 24.34 | 
O=C(NCCO)Nc1cccc(Cl)c1SC(F)F | > 195 | -20.44 | 
Cn1ccnc1-c1cccc(NC(=O)NCCCO)c1 | > 195 | -1.514 | 
Cc1ccc(NC(=O)Cn2cc(I)cn2)cc1 | > 195 | -1.868 | 
Cc1ccc(CC(=O)N2CCOC(c3nc(C)n[nH]3)C2)cn1 (configuration not stated) | > 195 | 13.87 | 
N#Cc1cccc(SCCS(N)(=O)=O)c1 | > 195 | -35.02 | 
CN(CCCC#N)C1CCCN(Cc2noc(C3CC3)n2)C1 (configuration not stated) | > 195 | -67.8 | 
CCc1cnc(CN(C(C)=O)C2CCN(CCS(C)(=O)=O)C2)o1 (configuration not stated) | > 195 | -22.31 | 
CN(Cc1cnn(C)c1)C(=O)NC1CCS(=O)(=O)C1 (configuration not stated) | > 195 | -4.908 | 

Structure (SMILES) | IC50 [2] [µM] | Percent Effect [7] [%] | other results
Cc1ccc(CNC(=O)Nc2cc(C(F)(F)F)c[nH]c2=O)cn1 | > 195 | -4.568 | 
Cc1cnn(CC(C)NCc2nc(-c3ccco3)no2)c1 (configuration not stated) | > 195 | -25.07 | 
CCc1nnc2n1CCN(C(=O)c1ccc3[nH]cnc3c1)C2 | > 195 | 19.35 | 
CN(Cc1cnn(C)c1)C(=O)NC1CCC(O)CC1 (configuration not stated) | > 195 | 15.72 | 
COc1cccc(CNCCc2cc(F)cc3c2OCOC3)c1 | > 195 | 75.77 | 
CCN1CC[C@@H]2OC[C@H](C(=O)NCc3cccs3)C[C@@H]2C1 | > 195 |  | IC50 [3]: > 100 µM
CCO[C@H]1CC[C@H]2[C@@H]1OCCN2C(=O)COc1ccccc1 | > 195 |  | IC50 [5]: > 50.1 µM; IC50 [6]: > 50.1 µM
Cn1ccc(-c2cc(C(=O)N3CCC(O)CC3)c3ccccn23)n1 | > 195 |  | IC50 [3]: > 100 µM; IC50 [5]: > 50.1 µM; IC50 [6]: > 50.1 µM
OCCNc1nccc(-c2c[nH]nc2-c2ccco2)n1 | > 195 |  | IC50 [4]: > 50.1 µM
O=C(c1ccc[nH]1)N1CCN(CC2CCOc3ccccc3C2)CC1 (configuration not stated) | > 195 | -5.036 | 
O=C(CCc1cc(O)no1)N1CCCC(COc2ccc(F)cc2)C1 (configuration not stated) | > 195 | 28.51 | 
O=C1CC2(CCN(CC3CCOC3)CC2)CN1Cc1cc(F)cc(F)c1 (configuration not stated) | > 195 | -23.28 | 
CC(=O)N1CCN(CC2CCOc3ccccc3C2)CC1 (configuration not stated) | > 195 | -45.54 | 
NC(=O)C1CCN(C(=O)CCn2ccc3cc(Br)ccc32)CC1 | > 195 | -11.99 | 
CC(C)N(C)CC(=O)N(C)C(c1cccc(F)c1)c1ccccn1 (configuration not stated) | > 195 |  | 
CC(=O)N(C)C(c1cccc(F)c1)c1ccccn1 (configuration not stated) | > 195 |  | 
COCCN1CCC(NCc2ccc(F)cc2F)C1 (configuration not stated) | > 195 |  | 
Cc1nn(C)c(C)c1C1COCCN1C(=O)c1ccc(Cl)o1 (configuration not stated) | > 195 |  | 
CCc1noc(CN2CCN(c3nccs3)CC2)n1 | > 195 |  | 
Cn1cc(CCN2CCOC(CNc3cccnn3)C2)cn1 (configuration not stated) | > 195 |  | 
CCc1nnc(CN2CCCCC2Cn2cncn2)o1 (configuration not stated) | > 195 |  | 
CCC(O)CN1CCN(C(=O)c2cc3ccccc3n2CC)CC1 (configuration not stated) | > 195 |  | 
CC(C)OCCCNC(=O)CS(=O)(=O)Cc1ccc(Cl)cc1 | > 195 |  | 
CCC(CC)c1nnc(NC(=O)NC(C)Cn2cccn2)s1 (configuration not stated) | > 195 |  | 
